{"source": "patent US20250134855A1", "about": "“CO[…] AND METHODS OF USING SAME” (LYKOS THERAPEUTICS, INC., priority 2022, published 2025)", "key": {"[1]": {"tested_on": "participants with PTSD of moderate or greater severity", "assay": "MAPP2 Phase 3: Sheehan Disability Scale (SDS)", "format": "in vivo, human", "text": "FIG. 36 and FIG. 37 show the time course of improvement in Clinician Administered PTSD Scale for DSM-5 (CAPS-5) total severity score versus placebo. Each show a treatment difference between MDMA and placebo after 3 medication sessions with psychological intervention. […] Between the second and third treatment sessions, the difference between the groups appeared to continue to increase in both studies. The primary efficacy measure was change from baseline in the CAPS-5 total severity score at 18 weeks, which was evaluated 2 months after the final dosing session. The CAPS-5 is a 30-item, clinician-rated scale used to assess severity of PTSD symptoms and diagnostic status according to DSM-5 criteria, as described herein. Scores on the CAPS 5 range from 0 to 80, with higher scores indicating more severe PTSD symptoms. In both studies, a secondary efficacy measure was change from baseline in Sheehan Disability Scale (SDS) mean item scores at 18 weeks. The modified SDS is a 3-item, clinician-rated scale measuring the degree of functional impairment in work, family, and social life. Scores on the SDS mean items range from 0 to 10, with higher scores indicating more functional impairment. In these studies, the efficacy assessments were administered by blinded independent raters 18 to 30 days after medication sessions 1 and 2.\nMAPP2 was a Phase 3 randomized, placebo-controlled, 2-arm, double-blind, multi-site study conducted to investigate the efficacy and safety of MDMA-AT in participants with PTSD of moderate or greater severity. This study included 3 experimental sessions of therapy combined with either MDMA or placebo. During Experimental Session 1, participants received a split dose of 120 mg (80 mg+40 mg). Participants received an escalated split dose of 180 mg during Experimental Sessions 2 and 3 unless there were tolerability issues or the participant declined.\nThe primary outcome measure, the CAPS-5, evaluated changes in PTSD symptom severity and the secondary outcome measure, the SDS, evaluated changes in functional impairment. Both measures were assessed by a blinded centralized language-specific IR pool.\nThe de jure estimand of treatment efficacy was used to determine the effect of MDMA-AT on SDS total score in the mITT analysis set."}, "[2]": {"target": "MDR1 (Homo sapiens, UniProt P08183)", "sequence (P08183 whole entry)": "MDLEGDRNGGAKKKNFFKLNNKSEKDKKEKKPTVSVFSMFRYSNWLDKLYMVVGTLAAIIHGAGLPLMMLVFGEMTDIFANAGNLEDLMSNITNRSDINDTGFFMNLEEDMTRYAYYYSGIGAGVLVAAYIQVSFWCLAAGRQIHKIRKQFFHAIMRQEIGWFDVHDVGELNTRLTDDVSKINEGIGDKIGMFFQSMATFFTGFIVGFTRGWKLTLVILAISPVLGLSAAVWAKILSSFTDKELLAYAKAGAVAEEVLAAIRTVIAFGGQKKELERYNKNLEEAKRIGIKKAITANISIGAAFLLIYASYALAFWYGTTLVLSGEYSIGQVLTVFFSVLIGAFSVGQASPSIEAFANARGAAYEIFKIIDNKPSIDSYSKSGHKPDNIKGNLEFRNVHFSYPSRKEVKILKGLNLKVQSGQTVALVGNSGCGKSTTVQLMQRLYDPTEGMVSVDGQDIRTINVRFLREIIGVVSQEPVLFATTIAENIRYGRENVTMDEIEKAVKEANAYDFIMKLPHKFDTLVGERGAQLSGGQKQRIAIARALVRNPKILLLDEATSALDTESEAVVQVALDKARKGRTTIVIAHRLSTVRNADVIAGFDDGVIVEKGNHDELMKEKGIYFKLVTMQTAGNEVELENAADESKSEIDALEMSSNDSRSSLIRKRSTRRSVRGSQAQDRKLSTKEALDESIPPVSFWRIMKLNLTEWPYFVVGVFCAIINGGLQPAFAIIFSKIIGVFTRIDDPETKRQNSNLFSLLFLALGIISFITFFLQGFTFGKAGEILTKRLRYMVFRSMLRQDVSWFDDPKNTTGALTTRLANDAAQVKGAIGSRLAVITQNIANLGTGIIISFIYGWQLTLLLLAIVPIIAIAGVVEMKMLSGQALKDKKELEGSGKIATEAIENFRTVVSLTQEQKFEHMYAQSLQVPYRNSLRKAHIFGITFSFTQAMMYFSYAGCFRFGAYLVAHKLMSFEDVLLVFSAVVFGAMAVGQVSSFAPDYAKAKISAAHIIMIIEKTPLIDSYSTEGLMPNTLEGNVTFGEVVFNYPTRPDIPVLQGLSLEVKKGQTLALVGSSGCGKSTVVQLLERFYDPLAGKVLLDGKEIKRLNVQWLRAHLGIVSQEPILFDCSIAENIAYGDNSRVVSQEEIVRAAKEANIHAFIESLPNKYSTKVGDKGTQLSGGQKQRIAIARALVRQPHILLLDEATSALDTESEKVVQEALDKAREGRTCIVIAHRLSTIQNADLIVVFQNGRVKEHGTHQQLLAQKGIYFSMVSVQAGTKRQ", "assay": "Transporter inhibition, MDR1"}, "[3]": {"tested_on": "participants with severe PTSD", "assay": "MAPP1 Phase 3: safety, adverse events", "format": "in vivo, human", "method": "MAPP1 was a Phase 3 randomized, placebo-controlled, 2-arm, double-blind, multi-site study conducted to investigate the efficacy and safety of MDMA-AT in participants with severe PTSD. This study is also discussed in Mitchell et. al., Nature Medicine 2021, 27, 1025-1033. This study included 3 experimental sessions of therapy combined with either MDMA·HCl or placebo. During Experimental Session 1, participants received a split dose of 120 mg (80 mg+40 mg).\nThere were 2 serious TEAEs in the placebo with therapy group (1 participant with 2 events of suicide attempt [1 moderate and 1 severe] and 1 participant with 1 event of suicidal ideation [severe], Listing 14.3.2.2.3). Adverse events of special interest included a subset of AEs involving cardiac function, suicidality, and MDMA abuse. There were 3 (6.5%) participants in the MDMA-AT group and 6 (13.6%) participants in the placebo with therapy group with a TEAE of special interest. The majority of AESIs were associated with suicidality (reported by […]) and 1 participant in the placebo group reported 2 AESIs that were associated with cardiac function (palpitations and irregular heart rate). […] A total of 4 participants discontinued study treatment due to a TEAE (MDMA: 1 participant [severe TEAE of depression]; placebo: 3 participants [1 participant with 2 serious adverse events (SAEs) of suicide attempt, 1 participant with a SAE of suicidal ideation, and 1 participant with 1 severe TEAE of insomnia]. The majority of participants in the MDMA-AT group (97.8%) and the placebo with therapy group (90.9%) had at least 1 temporally related TEAE (TEAEs that occurred during an experiment session or up to 2 days following); none of these events were SAEs. A listing of all TEAEs from MDMA-AT group with ≥5% incidence and twice prevalence of placebo group is provided below in Table 37. Table 37."}, "[4]": {"tested_on": "male rats", "assay": "In vivo genotoxicity (micronucleated polychromatic erythrocytes), male rats", "design": "species or system rat", "settings": "oral, doses up to 100 mg/kg day over two days", "text": "No statistically significant differences in micronucleated polychromatic erythrocytes or bone marrow cytotoxicity were observed across all dose levels."}, "[5]": {"settings": "MAPP2, mITT, Baseline (Visit 3)"}, "[6]": {"settings": "MAPP2, mITT, Baseline to Visit 19"}, "[7]": {"settings": "MAPP2, mITT, Visit 19 (Primary Endpoint)"}, "[8]": {"settings": "end of treatment, 52 patients (study not given)"}}}
{"compound": "CNC(C)Cc1ccc2c(c1)OCO2", "note": "(stereo not shown) [MDMA, 3,4-methylenedioxymethamphetamine]", "values": [{"measurement": "SDS Total Score CFB, LSMean", "setting": "[1]; MAPP2, mITT, MMRM, Visit 19", "value": "−3.31"}, {"measurement": "SDS Total Score CFB, LSMean for Treatment Difference", "setting": "[1]; MAPP2, mITT, MMRM, vs placebo with therapy, Visit 19", "value": "−1.20"}, {"measurement": "SDS Total Score, Mean", "setting": "[1]; [5]", "value": 6.0}, {"measurement": "SDS Total Score, Median", "setting": "[1]; [5]", "value": 6.3}, {"measurement": "SDS Total Score CFB, Mean", "setting": "[1]; [6]", "value": "−3.3"}, {"measurement": "SDS Total Score CFB, Median", "setting": "[1]; [6]", "value": "−4.0"}, {"measurement": "SDS Total Score, Mean", "setting": "[1]; MAPP2, mITT, Visit 8", "value": 4.1}, {"measurement": "SDS Total Score, Median", "setting": "[1]; MAPP2, mITT, Visit 8", "value": 4.3}, {"measurement": "SDS Total Score, Mean", "setting": "[1]; MAPP2, mITT, Visit 13", "value": 2.9}, {"measurement": "SDS Total Score, Median", "setting": "[1]; MAPP2, mITT, Visit 13", "value": 2.7}, {"measurement": "SDS Total Score, Mean", "setting": "[1]; [7]", "value": 2.7}, {"measurement": "SDS Total Score, Median", "setting": "[1]; [7]", "value": 2.3}, {"measurement": "reduction in SDS total scores", "setting": "[1]; MAPP2, MMRM, de jure estimand, mITT", "value": "−3.31"}, {"measurement": "SDS Remission (SDS mean item score < 3)", "setting": "[1]; [8]", "value": "(55.8) %"}, {"measurement": "SDS Remission (SDS mean item score < 3), n", "setting": "[1]; [8]", "value": 29}, {"measurement": "SDS Responder (4 point or greater reduction from baseline SDS mean item score)", "setting": "[1]; [8]", "value": "(53.8) %"}, {"measurement": "SDS Responder (4 point or greater reduction from baseline SDS mean item score), n", "setting": "[1]; [8]", "value": 28}, {"measurement": "inhibition of MDR1", "setting": "[2]", "value": "not an inhibitor"}, {"measurement": "AESIs of MDMA abuse", "setting": "[3]; MAPP1", "value": "no AESIs of MDMA abuse"}, {"measurement": "TEAE Blood pressure increased, %", "setting": "[3]; MAPP1", "value": "(10.9) %"}, {"measurement": "TEAE Bruxism, %", "setting": "[3]; MAPP1", "value": "(13.0) %"}, {"measurement": "TEAE Chills, %", "setting": "[3]; MAPP1", "value": "(6.5) %"}, {"measurement": "TEAE Decreased appetite, %", "setting": "[3]; MAPP1", "value": "(52.2) %"}, {"measurement": "TEAE Dizziness postural, %", "setting": "[3]; MAPP1", "value": "(13.0) %"}, {"measurement": "TEAE Dry mouth, %", "setting": "[3]; MAPP1", "value": "(10.9) %"}, {"measurement": "TEAE Feeling cold, %", "setting": "[3]; MAPP1", "value": "(19.6) %"}, {"measurement": "TEAE Feeling jittery, %", "setting": "[3]; MAPP1", "value": "(10.9) %"}, {"measurement": "TEAE Hyperhidrosis, %", "setting": "[3]; MAPP1", "value": "(21.7) %"}, {"measurement": "TEAE Intrusive thoughts, %", "setting": "[3]; MAPP1", "value": "(8.7) %"}, {"measurement": "TEAE Micturition urgency, %", "setting": "[3]; MAPP1", "value": "(6.5) %"}, {"measurement": "TEAE Muscle tightness, %", "setting": "[3]; MAPP1", "value": "(60.9) %"}, {"measurement": "TEAE Muscle twitching, %", "setting": "[3]; MAPP1", "value": "(6.5) %"}, {"measurement": "TEAE Musculoskeletal pain, %", "setting": "[3]; MAPP1", "value": "(8.7) %"}, {"measurement": "TEAE Mydriasis, %", "setting": "[3]; MAPP1", "value": "(15.2) %"}, {"measurement": "TEAE Nausea, %", "setting": "[3]; MAPP1", "value": "(30.4) %"}, {"measurement": "TEAE Nervousness, %", "setting": "[3]; MAPP1", "value": "(6.5) %"}, {"measurement": "TEAE Non-cardiac chest pain, %", "setting": "[3]; MAPP1", "value": "(8.7) %"}, {"measurement": "TEAE Nystagmus, %", "setting": "[3]; MAPP1", "value": "(13.0) %"}, {"measurement": "TEAE Pain, %", "setting": "[3]; MAPP1", "value": "(8.7) %"}, {"measurement": "TEAE Pollakiuria, %", "setting": "[3]; MAPP1", "value": "(8.7) %"}, {"measurement": "TEAE Pyrexia, %", "setting": "[3]; MAPP1", "value": "(6.5) %"}, {"measurement": "TEAE Restlessness, %", "setting": "[3]; MAPP1", "value": "(15.2) %"}, {"measurement": "TEAE Somnolence, %", "setting": "[3]; MAPP1", "value": "(6.5) %"}, {"measurement": "TEAE Stress, %", "setting": "[3]; MAPP1", "value": "(8.7) %"}, {"measurement": "TEAE Substance use, %", "setting": "[3]; MAPP1", "value": "(6.5) %"}, {"measurement": "TEAE Vision blurred, %", "setting": "[3]; MAPP1", "value": "(8.7) %"}, {"measurement": "TEAE Vomiting, %", "setting": "[3]; MAPP1", "value": "(8.7) %"}, {"measurement": "participants with a TEAE of special interest", "setting": "[3]; MAPP1", "value": 6.5, "unit": "%"}, {"measurement": "At least one Serious TEAE Leading to Death, %", "setting": "[3]; MAPP1, Safety Set", "value": "(0.0) %"}, {"measurement": "At least one Serious TEAE, %", "setting": "[3]; MAPP1, Safety Set", "value": "(0.0) %"}, {"measurement": "At least one TEAE of Special Interest, %", "setting": "[3]; MAPP1, Safety Set", "value": "(6.5) %"}, {"measurement": "Discontinued study treatment due to any TEAE(s), %", "setting": "[3]; MAPP1, Safety Set", "value": "(2.2) %"}, {"measurement": "Participants with at least 1 TEAE during Experimental Sessions and 2 Days Following, %", "setting": "[3]; MAPP1, Safety Set", "value": "(97.8) %"}, {"measurement": "Subjects with at least 1 Severe TEAE, %", "setting": "[3]; MAPP1, Safety Set", "value": "(8.7) %"}, {"measurement": "Subjects with at least 1 TEAE, %", "setting": "[3]; MAPP1, Safety Set", "value": "(100.0) %"}, {"measurement": "heart rate and blood pressure during experimental sessions", "setting": "[3]; MAPP1, dose-dependent, no clinical intervention required", "value": "transient increases"}, {"measurement": "participants with at least 1 temporally related TEAE", "setting": "[3]; MAPP1, during an experiment session or up to 2 days following", "value": 97.8, "unit": "%"}, {"measurement": "genotoxicity in vivo", "setting": "[4]", "value": "no signs of genotoxicity"}]}
